ChEMBL document CHEMBL1153475, “Novel indoline-based acyl-CoA: cholesterol acyltransferase inhibitor: Effects of introducing a methanesulfonamide group on physicochemical properties and biological activities” (Bioorg Med Chem, 2009)

What was measured:
THP-1 [1] = experiment: Anti-foam cell formation activity in human THP1 cells assessed as inhibition of esterified cholesterol accumulation after 24 hrs in presence of Japanese white rabbit high-cholesterol serum; format: functional, cell-based; conditions: THP-1, 24 h
[2] = target: T1, Acyl-CoA:cholesterol acyltransferase (Oryctolagus cuniculus, UniProt Q95214); experiment: Inhibition of ACAT in Japanese White rabbit liver microsomes; set-up: species or system Microsome
T1 sequence (Q95214 whole entry): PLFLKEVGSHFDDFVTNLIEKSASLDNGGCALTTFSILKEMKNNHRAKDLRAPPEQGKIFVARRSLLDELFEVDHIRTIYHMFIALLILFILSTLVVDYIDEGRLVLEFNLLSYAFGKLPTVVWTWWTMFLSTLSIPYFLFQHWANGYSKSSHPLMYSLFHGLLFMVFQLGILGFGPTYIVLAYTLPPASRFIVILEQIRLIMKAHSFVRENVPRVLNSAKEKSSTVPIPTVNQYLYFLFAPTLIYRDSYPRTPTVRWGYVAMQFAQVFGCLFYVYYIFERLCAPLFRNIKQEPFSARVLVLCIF

[3] = Cmax in Sprague-Dawley rat at 10 mg/kg, po; format: ADME, organism-based; set-up: dose 10 mg/kg, route oral; conditions: in vivo
[4] = Tmax in Sprague-Dawley rat at 10 mg/kg, po; format: ADME, organism-based; set-up: dose 10 mg/kg, route oral; conditions: in vivo
[5] = Half life in Sprague-Dawley rat at 10 mg/kg, po; format: ADME, organism-based; set-up: dose 10 mg/kg, route oral; conditions: in vivo
[6] = AUC (0 to 24 hrs) in Sprague-Dawley rat at 10 mg/kg, po; format: ADME, organism-based; set-up: time < 24 hr, dose 10 mg/kg, route oral; conditions: plasma
[7] = Protein binding in rat plasma assessed as total and protein free fraction concentration at 10 ug/ML after 150 mins by ultracentrifugation method; format: ADME, cell-free; conditions: read-out: PPB (converted)
THP-1 [8] = experiment: Anti-foam cell formation activity in human THP1 cells assessed as inhibition of esterified cholesterol accumulation after 24 hrs in presence of albumin; format: functional
Mus musculus = experiment: Inhibition of hepatic cholesterol secretion in ICR mouse at 10 mg/kg, po after 3 hrs by enzymatic method; format: functional

| Structure (SMILES) | IC50 (THP-1 [1]) [nM] | IC50 [2] [nM] | other results |
| --- | --- | --- | --- |
| CCCCCCCCN1CCc2c(C)cc(C)c(NC(=O)C(C)(C)C)c21 | 290 | – | – |
| CCCCN1CCc2c(C)cc(C)c(NC(=O)C(C)(C)C)c21 | 1100 | 220 | – |
| CCCCCCCCCCN1CCc2c(C)c(CC(=O)O)c(C)c(NC(=O)C(C)(C)C)c21 | 980 | 910 | – |
| COCCN1CCc2c(C)c(NS(C)(=O)=O)c(C)c(NC(=O)C(C)(C)C)c21 | 1600 | 270 | – |
| CCCN1CCCc2c(C)c(NS(C)(=O)=O)c(C)c(NC(=O)C(C)(C)C)c21 | 290 | 130 | – |
| CCN1CCc2c(C)c(NS(C)(=O)=O)c(C)c(NC(=O)C(C)(C)C)c21 | – | – | Cmax [3]: 2900 ng/mL; Tmax [4]: 0.5 h; half-life [5]: 2.59 h; AUC(0-t) at 24 h [6]: 10800 ng·h/mL |
| Cc1c2c(c(NC(=O)C(C)(C)C)c(C)c1NS(C)(=O)=O)N(C)CC2 | 7500 | 8800 | – |
| CCCCCCCCCCCN1CCc2c(C)c(CC(=O)O)c(C)c(NC(=O)C(C)(C)C)c21 | 850 | 960 | – |
| CCOCCN1CCc2c(C)c(NS(C)(=O)=O)c(C)c(NC(=O)C(C)(C)C)c21 | 820 | 310 | – |
| CCCCN1CCc2c(C)c(NS(C)(=O)=O)c(C)c(NC(=O)C(C)(C)CC)c21 | 45 | 53 | – |
| CCCCCCCCN1CCc2c(C)c(CC(=O)O)c(C)c(NC(=O)C(C)(C)C)c21 | 2000 | 2300 | – |
| CCCCCCCCN1CCc2c(C)c(CC(=O)O)c(C)c(NC(=O)C(C)(C)C)c21 [PACTIMIBE] | – | – | fraction unbound at […], 10 ug/mL [7]: 0.021; fold change (FC) (THP-1 [8]): 10; inhibition in vivo at 10 mg/kg (Mus musculus): 28%; Cmax [3]: 800 ng/mL; Tmax [4]: 0.67 h; half-life [5]: 7.37 h; AUC(0-t) at 24 h [6]: 2800 ng·h/mL |
